Data taken from BindingDB's records for doi:10.1021/jm0102203 (Glaxosmithkline, 2001).

Experiment: Ability to inhibit Human cytomegalovirus (HCMV) protease activity

IC50 | SMILES
500 µM | C[C@@H]1C(=O)N(c2ccc([N+](=O)[O-])cc2[N+](=O)[O-])[C@H]2CCN(C(=O)OCc3ccccc3)C12 (stereo partly drawn) [4-(2,4-Dinitro-phenyl)-6-methyl-5-oxo-hexahydro-pyrrolo[3,2-b]pyrrole-1-carboxylic acid benzyl ester]
> 500 µM | CC(=O)C=CN1C(=O)[C@@H](C)C2[C@@H]1CCN2C(=O)OCc1ccccc1 (stereo partly drawn) [6-Methyl-5-oxo-4-(3-oxo-but-1-enyl)-hexahydro-pyrrolo[3,2-b]pyrrole-1-carboxylic acid benzyl ester]
250 µM | C[C@@H]1C(=O)N(C(=O)n2cccc2)[C@H]2CCN(C(=O)OCc3ccccc3)C12 (stereo partly drawn) [6-Methyl-5-oxo-4-(pyrrole-1-carbonyl)-hexahydro-pyrrolo[3,2-b]pyrrole-1-carboxylic acid benzyl ester]
